Measured values: US20230086702A1, “SUBSTITUTED 2-AMINO-PYRAZOLYL-[1,2,4]TRIAZOLO[1,5A]PYRIDINE DERIVATIVES AND USE THEREOF” (The Johns Hopkins University, priority 2019, published 2023)
pIC50: −log10 of the molar value.

Tests used:
LZK = molecular target: T1, LZK (Homo sapiens, UniProt O43283); assay: LZK biochemical assay (TR-FRET, MKK7 phosphorylation)
T1 construct: 10 nM LZK, catalytic domain, Carna Biosiences in assay buffer; purchased Carna Biosciences ('Carna Biosiences' [sic])
T1 sequence (O43283 168-409 limits assumed): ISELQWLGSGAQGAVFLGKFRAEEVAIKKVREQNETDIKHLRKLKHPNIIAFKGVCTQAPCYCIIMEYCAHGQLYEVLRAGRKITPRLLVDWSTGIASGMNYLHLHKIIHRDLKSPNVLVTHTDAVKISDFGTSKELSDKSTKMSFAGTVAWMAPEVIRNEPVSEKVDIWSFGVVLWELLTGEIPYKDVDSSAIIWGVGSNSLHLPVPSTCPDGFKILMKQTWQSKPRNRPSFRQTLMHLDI
Procedure: (§1) LZK assay is a biochemical assay format designed to screen for inhibitors of LZK. Enzymatic activity of LZK is measured by monitoring phosphorylation of the physiological substrate MKK7 (MAP2K7, Dual specificity mitogen-activated protein kinase kinase 7). Phosphorylation is detected by a TR-FRET system whereby His-tagged MKK7 is labeled by a XL665-labeled anti-His antibody (FRET acceptor, emission 665 nm). LZK phosphorylates MKK7 at T275/S277 which is detected by an Eu-labeled anti-phospho-MKK7 (T275/S277) antibody (FRET donor, excitation 340 nm). Phosphorylation of MKK7 results in an increased TR-FRET signal (Ratio XL665-channel/Eu-channel) and inhibition of enzymatic activity of LZK decreases the TR-FRET signal.
(§2) Assay Protocol for 384 low volume MTP format: 1 μl of test compound is pipetted into test plate; +5 μl LZK solution (10 nM LZK, catalytic domain, Carna Biosiences in assay buffer); +5 μl substrate solution (15 nM MKK7, LDB; 15 μM ATP, in assay buffer); 90 min incubation at RT; +5 μl detection mix (20 nM XL665-labeled anti-His antibody, Cisbio; 0.4 nM Eu-labeled anti-phospho-MKK7 (T275/S277), Cisbio/Millipore in detection buffer); 16 h incubation at 32° C.; endpoint measurement BMG (HTRF).
(§3) All indicated concentrations final concentrations.
(§4) Assay buffer (384 format): 50 mM Hepes pH 7.5, 10 mM MgCl2, 1 mM EGTA, 1 mM DTT, 0.01% Triton X-100, 0.01% BSA, 1:500 Smart Block.
(§5) Detection buffer: 25 mM Tris/HCl pH 7.5, 100 mM EDTA, 100 mM NaCl, 200 mM KF, 0.01% Tween 20, 1:500 Smart Block.

DLK = molecular target: T2, DLK (Homo sapiens, UniProt Q12852); assay: DLK biochemical assay (TR-FRET, MKK7 phosphorylation)
T2 construct: 10 nM DLK, catalytic domain, Carna Biosiences; purchased Carna Biosciences ('Carna Biosiences' [sic])
T2 sequence (Q12852 125-366 limits assumed): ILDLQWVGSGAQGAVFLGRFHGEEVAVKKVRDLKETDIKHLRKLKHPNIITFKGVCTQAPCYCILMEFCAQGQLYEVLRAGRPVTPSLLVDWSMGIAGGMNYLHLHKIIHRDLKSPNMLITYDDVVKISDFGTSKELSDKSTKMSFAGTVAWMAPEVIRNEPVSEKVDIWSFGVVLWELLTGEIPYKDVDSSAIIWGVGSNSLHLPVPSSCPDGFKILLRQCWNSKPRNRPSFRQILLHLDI
Procedure: as §1, with “DLK assay” for “LZK assay”, “of DLK.” for “of LZK.”, “of DLK” for “of LZK”, “nm). DLK” for “nm). LZK”, “at T275/S277,” for “at T275/S277”
Assay Protocol for 1536 MTP format: test compounds are predispensed (60 nl) in test plates; +3 μl DLK solution (10 nM DLK, catalytic domain, Carna Biosiences, 0.6 mM DTT in assay buffer); +2 μl substrate solution (15 nM MKK7, LDB; 60 μM ATP; 0.4 mM DTT in assay buffer); 90 min incubation at RT; +2 μl detection mix (5 nM XL665-labeled anti-His antibody, Cisbio; 0.1 nM Eu-labeled anti-phospho-MKK7 (T275/S277), Cisbio/Millipore in detection buffer); 16 h incubation at 37° C.; endpoint measurement BMG (HTRF).
as §2, with “test compounds” for “test compound”, “μl DLK” for “μl LZK”, “nM DLK,” for “nM LZK,”, “LDB; 60” for “LDB; 15”, “RT; +9” for “RT; +5”, “at 4°” for “at 32°”
as §3, §4, §5

pIC50 (LZK)	pIC50 (DLK)	Compound
6.70	7.66	CC[C@@H](c1ccccc1)n1cc(-c2cc(-c3cnn(C(C)C(F)(F)F)c3)c3nc(N)nn3c2)cn1 (mixture of isomers) [II-94, 6-{1-[(15)-1-Phenylpropyl]-1H-pyrazol-4-yl}-8-[1-(1,1,1-trifluoropropan-2-yl)-1H-pyrazol-4-yl][1,2,4]triazolo[1,5-a]pyridin-2-amine]
8.64	8.20	CCC(c1ccc(C(F)(F)F)nc1)n1cc(-c2cc(-c3cc(CO)ccc3Cl)c3nc(N)nn3c2)cn1 (racemic) [II-1, {3-[2-Amino-6-(1-{1-[6-(trifluoromethyl)pyridin-3-yl]propyl}-1H-pyrazol-4-yl)[1,2,4]triazolo[1,5-a]pyridin-8-yl]-4-chlorophenyl}methanol]
8.23	8.15	Nc1nc2c(-c3cc(CO)ccc3Cl)cc(-c3cnn(C(c4ccc(C(F)(F)F)nc4)C4CCOCC4)c3)cn2n1 (racemic) [II-4, {3-[2-Amino-6-(1-{tetrahydro-2H-pyran-4-yl[6-(trifluoromethyl)pyridin-3-yl]methyl}-1H-pyrazol-4-yl)[1,2,4]triazolo[1,5-a]pyridin-8-yl]-4-chlorophenyl}methanol]
8.48	9.10	CCC(c1ccc(C(F)(F)F)nc1)n1cc(-c2cc(-c3cccc(C(C)(C)O)c3)c3nc(N)nn3c2)cn1 (racemic) [II-7, 2-{3-[2-Amino-6-(1-{1-[6-(trifluoromethyl)pyridin-3-yl]propyl}-1H-pyrazol-4-yl)[1,2,4]triazolo[1,5-a]pyridin-8-yl]phenyl}propan-2-ol]
9.05	9.15	CC(C)(O)c1cccc(-c2cc(-c3cnn(C(c4ccc(C(F)(F)F)nc4)C4CCOCC4)c3)cn3nc(N)nc23)c1 (racemic) [II-10, 2-{3-[2-Amino-6-(1-{tetrahydro-2H-pyran-4-yl[6-(trifluoromethyl)pyridin-3-yl]methyl}-1H-pyrazol-4-yl)[1,2,4]triazolo[1,5-a]pyridin-8-yl]phenyl}propan-2-ol]
8.74	9.15	CS(=O)(=O)c1cccc(-c2cc(-c3cnn(C(c4ccc(C(F)(F)F)nc4)C4CCOCC4)c3)cn3nc(N)nc23)c1 (racemic) [II-13, 8-[3-(Methylsulfonyl)phenyl]-6-(1-{tetrahydro-2H-pyran-4-yl[6-(trifluoromethyl)pyridin-3-yl]methyl}-1H-pyrazol-4-yl)[1,2,4]triazolo[1,5-a]pyridin-2-amine]
8.46	8.96	CCS(=O)(=O)c1cccc(-c2cc(-c3cnn(C(c4ccc(C(F)(F)F)nc4)C4CCOCC4)c3)cn3nc(N)nc23)c1 (racemic) [II-16, 8-[3-(Ethylsulfonyl)phenyl]-6-(1-{tetrahydro-2H-pyran-4-yl[6-(trifluoromethyl)pyridin-3-yl]methyl}-1H-pyrazol-4-yl)[1,2,4]triazolo[1,5-a]pyridin-2-amine]
7.35	7.77	Nc1nc2c(-c3cccc(S(=O)(=O)C(F)(F)F)c3)cc(-c3cnn(C(c4ccc(C(F)(F)F)nc4)C4CCOCC4)c3)cn2n1 (racemic) [II-19, 6-(1-{Tetrahydro-2H-pyran-4-yl[6-(trifluoromethyl)pyridin-3-yl]methyl}-1H-pyrazol-4-yl)-8-{3-[(trifluoromethyl)sulfonyl]phenyl}[1,2,4]triazolo[1,5-a]pyridin-2-amine]
8.18	8.66	CN(C)c1cccc(-c2cc(-c3cnn(C(c4ccc(C(F)(F)F)nc4)C4CCOCC4)c3)cn3nc(N)nc23)c1 (racemic) [II-22, 8-[3-(Dimethylamino)phenyl]-6-(1-{tetrahydro-2H-pyran-4-yl[6-(trifluoromethyl)pyridin-3-yl]methyl}-1H-pyrazol-4-yl)[1,2,4]triazolo[1,5-a]pyridin-2-amine]
7.09	6.89	CCC(c1ccc(C(F)(F)F)nc1)n1cc(-c2cc(-c3ccnc(OC(F)F)c3)c3nc(N)nn3c2)cn1 (racemic) [II-25, 8-[2-(Difluoromethoxy)pyridin-4-yl]-6-(1-{1-[6-(trifluoromethyl)pyridin-3-yl]propyl}-1H-pyrazol-4-yl)[1,2,4]triazolo[1,5-a]pyridin-2-amine]
7.57	7.55	CC(C)C(c1ccc(C(F)(F)F)nc1)n1cc(-c2cc(-c3ccnc(C(F)(F)F)c3)n3nc(N)nc3c2)cn1 (racemic) [II-28, 7-(1-{2-Methyl-1-[6-(trifluoromethyl)pyridin-3-yl]propyl}-1H-pyrazol-4-yl)-5-[2-(trifluoromethyl)pyridin-4-yl][1,2,4]triazolo[1,5-a]pyridin-2-amine]
8.21	7.59	CCC(c1ccc(C(F)(F)F)nc1)n1cc(-c2cc(-c3ccnc(C4(F)CC4)c3)n3nc(N)nc3c2)cn1 (racemic) [II-31, 5-[2-(1-Fluorocyclopropyl)pyridin-4-yl]-7-(1-{1-[6-(trifluoromethyl)pyridin-3-yl]propyl}-1H-pyrazol-4-yl)[1,2,4]triazolo[1,5-a]pyridin-2-amine]
8.15	7.82	Nc1nc2cc(-c3cnn(C(c4ccc(C(F)(F)F)nc4)C4CCOCC4)c3)cc(-c3ccnc(C(F)(F)F)c3)n2n1 (racemic) [II-34, 7-(1-{Tetrahydro-2H-pyran-4-yl[6-(trifluoromethyl)pyridin-3-yl]methyl}-1H-pyrazol-4-yl)-5-[2-(trifluoromethyl)pyridin-4-yl][1,2,4]triazolo[1,5-a]pyridin-2-amine]
7.13	7.34	CCC(c1ccc(C(F)(F)F)nc1)n1cc(-c2cc(-c3ccc(C(F)(F)F)nc3)c3nc(N)nn3c2)cn1 (racemic) [II-37, 8-[6-(Trifluoromethyl)pyridin-3-yl]-6-(1-{1-[6-(trifluoromethyl)pyridin-3-yl]propyl}-1H-pyrazol-4-yl)[1,2,4]triazolo[1,5-a]pyridin-2-amine]
6.92	7.36	CC(C)C(c1ccc(C(F)(F)F)nc1)n1cc(-c2cc(-c3ccc(C(F)(F)F)nc3)c3nc(N)nn3c2)cn1 (racemic) [II-40, 6-(1-{2-Methyl-1-[6-(trifluoromethyl)pyridin-3-yl]propyl}-1H-pyrazol-4-yl)-8-[6-(trifluoromethyl)pyridin-3-yl][1,2,4]triazolo[1,5-a]pyridin-2-amine]
7.59	8.38	CC(C)C(c1ccc(C(F)(F)F)nc1)n1cc(-c2cc(-c3ccc(C4CC4)nc3)c3nc(N)nn3c2)cn1 (racemic) [II-43, 8-(6-Cyclopropylpyridin-3-yl)-6-(1-{2-methyl-1-[6-(trifluoromethyl)pyridin-3-yl]propyl}-1H-pyrazol-4-yl)[1,2,4]triazolo[1,5-a]pyridin-2-amine]
